Values of other authors in patent US11986493B2 (University of Pittsburgh—Of the Commonwealth System of …, priority 2013, dated 2024).

System: hypoxic and normoxic subjects
Conditions: Ingram et al. (Am J. Phsiol. 298:H331-H339 (2010)); cited from earlier work

## O=NO [nitrite, sodium nitrite]
  arterial and pulmonary vasodilation: causes arterial and pulmonary vasodilation in hypoxic but not normoxic subjects
